Test results taken from ChEMBL document CHEMBL1131057, “Peptidomimetic growth hormone secretagogues. Design considerations and therapeutic potential” (J Med Chem, 1998).
Blank lines part the entries; values can stand above or below the compound they belong to. Where a SMILES comes first, the peptide text is derived from it. [ ]: non-standard residue; d: D form.

Assays:
Rattus norvegicus [1] = species: Rattus norvegicus; assay: compound was evaluated for GH release in the rat pituitary cell culture assay; assay type: functional; conditions: Pituitary gland cell
Rattus norvegicus [2] = assay: Compound was tested for effective dose rquired for GH release following iv administration to 4-week old anesthetized Sprague-Dawley rats; assay type: functional
[3] = Compound was evaluated for oral bioavailability in human; assay type: ADME, organism-based; conditions: in vivo
[4] = Clearance rate is evaluated rats; assay type: ADME, organism-based; conditions: rat, in vivo; read-out: Clearance rate
[5] = Compound was evaluated for half-life in humans; assay type: ADME, organism-based; conditions: human, in vivo
[6] = Half-life was evaluated in rats; assay type: ADME, organism-based; conditions: rat, in vivo
Canis familiaris = assay: Compound was tested for minimum effective dose in dogs through iv dose; assay type: functional; conditions: Canis lupus familiaris
Rattus norvegicus [7] = species: Rattus norvegicus; assay: compound was evaluated for GH release in the rat; 10-30 ng/mL; assay type: functional, organism-based
Rattus norvegicus [8] = species: Rattus norvegicus; assay: In vitro efficacy was evaluated for growth hormone release
Oxytocin receptor = target: T1, Oxytocin receptor (Homo sapiens, UniProt P30559); assay: Antagonistic activity against Oxytocin receptor; assay type: functional
T1 sequence (P30559 whole entry): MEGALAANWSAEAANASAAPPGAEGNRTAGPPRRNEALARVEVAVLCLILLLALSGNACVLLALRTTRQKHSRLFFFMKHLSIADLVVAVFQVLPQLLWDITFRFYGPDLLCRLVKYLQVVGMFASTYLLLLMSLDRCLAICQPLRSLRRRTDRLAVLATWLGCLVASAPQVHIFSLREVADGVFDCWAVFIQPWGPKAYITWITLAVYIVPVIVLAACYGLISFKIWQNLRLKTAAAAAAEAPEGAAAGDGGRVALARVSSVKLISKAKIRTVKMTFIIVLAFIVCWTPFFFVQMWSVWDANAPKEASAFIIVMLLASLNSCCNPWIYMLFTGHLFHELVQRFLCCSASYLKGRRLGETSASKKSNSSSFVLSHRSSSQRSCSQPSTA

Rattus norvegicus [9] = species: Rattus norvegicus; assay: compound was evaluated for GH release in the rat pituitary cell; assay type: functional; conditions: Pituitary gland cell
Rattus norvegicus [10] = species: Rattus norvegicus; assay: compound was evaluated for GH release in the rat; assay type: functional, organism-based
[11] = Half-life period measured in dog; assay type: ADME, organism-based, Canis lupus familiaris; conditions: in vivo
[12] = Compound was evaluated for percentage of Oral bioavailability in rats; assay type: ADME, organism-based; conditions: rat, in vivo, read-out: Bioavailabiility
Rattus norvegicus [13] = species: Rattus norvegicus; assay: In Vitro evaluation for growth hormone release from the pituitary incubates; assay type: functional
[14] = target: Growth hormone secretagogue receptor type 1 (Homo sapiens, UniProt Q92847); assay: Compound was evaluated for GH release for effect on human GH secretagogue receptor; assay type: functional
Sequence of Growth hormone secretagogue receptor type 1 (Q92847 whole entry): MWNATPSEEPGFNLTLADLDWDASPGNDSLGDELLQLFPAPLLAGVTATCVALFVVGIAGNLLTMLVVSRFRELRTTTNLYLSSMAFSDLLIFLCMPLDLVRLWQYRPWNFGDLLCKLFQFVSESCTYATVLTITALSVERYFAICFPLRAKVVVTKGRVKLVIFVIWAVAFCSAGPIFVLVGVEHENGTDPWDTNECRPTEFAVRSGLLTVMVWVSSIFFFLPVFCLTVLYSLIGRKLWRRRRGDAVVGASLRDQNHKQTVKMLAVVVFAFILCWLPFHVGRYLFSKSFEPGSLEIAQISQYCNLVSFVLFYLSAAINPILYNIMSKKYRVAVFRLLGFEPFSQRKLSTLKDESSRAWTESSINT

EC50 (Rattus norvegicus [1]): 100 nM
Compound: CNC(=O)Nc1ccccc1-c1ccc2c(c1)CCN(C(=O)[C@@H](Cc1c[nH]c3ccccc13)NC(=O)C(C)(C)N)C2

EC50 (Rattus norvegicus [1]): 21 nM
Compound: C[C@@H]1CNC(C)(C)CC(=O)N[C@@H]2CCc3ccccc3N(Cc3ccc(cc3)-c3ccccc3C(=O)NCCCC(=O)O1)C2=O

EC50 (Rattus norvegicus [1]): 30 nM
Compound: CN(C)S(=O)(=O)c1ccc2c(c1)CN(C(=O)[C@@H](Cc1c[nH]c3ccccc13)NC(=O)C(C)(C)N)CC2
ED50 (Rattus norvegicus [2]): 3 mg/kg

EC50 (Rattus norvegicus [1]): 3 nM
Compound: CC(C)(N)C(=O)N[C@H](Cc1c[nH]c2ccccc12)C(=O)N1CCc2ccc(S(N)(=O)=O)cc2C1

bioavailability [3]: 0.3%
clearance [4]: 25 mL/min/kg
half-life [5]: 20 min
half-life [6]: 22 min
Compound: C[C@H](NC(=O)[C@@H](Cc1c[nH]c2ccccc12)NC(=O)[C@@H](N)Cc1c[nH]cn1)C(=O)N[C@@H](Cc1c[nH]c2ccccc12)C(=O)N[C@H](Cc1ccccc1)C(=O)N[C@@H](CCCCN)C(N)=O (H-H[dW]AW[dF]K-NH2)
MED (Canis familiaris): 0.01 mg/kg

Compound: C[C@H](NC(=O)[C@H](Cc1c[nH]c2ccccc12)NC(=O)[C@@H](N)Cc1ccc(O)cc1)C(=O)N[C@@H](Cc1c[nH]c2ccccc12)C(=O)N[C@H](Cc1ccccc1)C(N)=O
Concentration (Rattus norvegicus [7]): 30 ng/mL

Compound: CC(C)(CC(=O)N[C@@H]1CCc2ccccc2N(Cc2ccc(-c3ccccc3C(N)=O)cc2)C1=O)NC[C@H](O)CO
EC50 (Rattus norvegicus [8]): 3 nM

IC50 (Oxytocin receptor): 68 nM
Compound: CC1(C)C2CCC1(CS(=O)(=O)N1CCC3(CCc4ccccc43)CC1)C(NC(=O)C1CCCNC1)C2 [L-368112]
EC50 (Rattus norvegicus [8]): 300 nM

Compound: O=C(NC(Cc1c[nH]c2ccccc12)C(=O)N1CCC2(CCc3ccccc32)CC1)NC1CN2CCC1CC2 (stereo unspecified) [SPIROPIPERIDINE]
IC50 (Rattus norvegicus [1]): 50 nM

Compound: C[C@@H](O)CNC(C)(C)CC(=O)N[C@@H]1CCc2ccccc2N(Cc2ccc(-c3ccccc3-c3nn[nH]n3)cc2)C1=O [L-692585]
EC50 (Rattus norvegicus [8]): 3 nM

Compound: CSCC[C@@H](NC(=O)[C@H](Cc1ccccc1)NC(=O)CNC(=O)[C@H](Cc1c[nH]c2ccccc12)NC(=O)[C@@H](N)Cc1ccc(O)cc1)C(N)=O
Concentration (Rattus norvegicus [9]): 10 µg/mL

EC50 (Rattus norvegicus [10]): 0.18 nM
Compound: NCCCC[C@H](NC(=O)[C@H](Cc1ccccc1)NC(=O)[C@@H](Cc1ccc2ccccc2c1)NC(=O)[C@@H](Cc1ccc2ccccc2c1)NC(=O)C1CCNCC1)C(N)=O

EC50 (Rattus norvegicus [1]): 1.8 nM
Compound: CC(C)(N)C(=O)N[C@H](Cc1c[nH]c2ccccc12)C(=O)N1CCC[C@]2(CC(=O)c3ccccc3O2)C1

half-life [11]: 102 min
EC50 (Rattus norvegicus [1]): 1.9 nM
Compound: CCOC(=O)[C@H]1CC2(CCN(C(=O)[C@@H](CCCc3ccccc3)NC(=O)C(C)(C)N)CC2)c2ccccc21

bioavailability [12]: < 5%
Compound: CC(C)(N)CC(=O)N[C@@H]1CCc2c(ccc3ccccc23)N(Cc2ccc(-c3ccccc3-c3nn[nH]n3)cc2)C1=O
EC50 (Rattus norvegicus [8]): 4 nM

Compound: CSCC[C@@H](NC(=O)[C@H](Cc1ccccc1)NC(=O)CNC(=O)[C@H](Cc1ccccc1)NC(=O)[C@@H](N)Cc1ccc(O)cc1)C(N)=O
Concentration (Rattus norvegicus [13]): 10 µg/mL

EC50 [14]: 0.34 nM
Compound: NC(=O)CN(CCc1ccccc1)C(=O)[C@@H](Cc1ccc2ccccc2c1)NC(=O)[C@@H](Cc1ccc2ccccc2c1)NC(=O)C1CCNCC1

EC50 (Rattus norvegicus [1]): 50 nM
Compound: CNC(=O)Nc1ccccc1-c1ccc(CN2C(=O)[C@H](NC(=O)CC(C)(C)N)CCc3ccccc32)cc1
